# Assay results published in PubChem BioAssay AID387.
# Biological target: Farnesyl pyrophosphate synthase (Homo sapiens) (UniProt P14324)
# Test: ligand-induced stabilization of human FDPS – biophysical, DSF, SYPRO orange, purified protein (AID 387)
# Conditions: DSF thermal shift, at 10 µM, protein 2 µM, buffer 10 mM HEPES, pH 7.5, NaCl 150 mM, MgCl4 50 µM, hits give high values
# Sequence of Farnesyl pyrophosphate synthase (Homo sapiens) (P14324 whole entry, looked up): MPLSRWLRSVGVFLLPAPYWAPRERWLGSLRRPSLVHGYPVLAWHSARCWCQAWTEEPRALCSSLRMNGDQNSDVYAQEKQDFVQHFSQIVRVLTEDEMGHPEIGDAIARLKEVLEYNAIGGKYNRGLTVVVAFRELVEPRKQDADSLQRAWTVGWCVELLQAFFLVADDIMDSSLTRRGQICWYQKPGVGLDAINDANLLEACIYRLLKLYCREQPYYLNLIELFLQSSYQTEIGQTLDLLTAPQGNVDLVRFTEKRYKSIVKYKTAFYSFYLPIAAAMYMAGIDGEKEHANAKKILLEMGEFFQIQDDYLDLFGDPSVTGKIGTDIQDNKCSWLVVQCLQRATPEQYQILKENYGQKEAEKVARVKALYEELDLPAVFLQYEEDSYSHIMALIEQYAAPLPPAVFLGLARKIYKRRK
smiles,measurement,value
O=[P+](O)C(O)(Cc1cccnc1)P(=O)(O)O (stereo unspecified),Tm shift,4.13 Celsius
